The record followed here is patent US8426449B2, “Aminoalkylphenyl antagonists of prostaglandin D2 receptors” (Panmira Pharmaceuticals, LLC, priority 2008, dated 2013).

What is called IC50 is the concentration that inhibits the measured activity by half.

The assay addresses T1, human DP2 receptor (Homo sapiens, UniProt Q9Y5Y4).
T1 construct: expressed in transfected cells
T1 sequence (Q9Y5Y4 1-395): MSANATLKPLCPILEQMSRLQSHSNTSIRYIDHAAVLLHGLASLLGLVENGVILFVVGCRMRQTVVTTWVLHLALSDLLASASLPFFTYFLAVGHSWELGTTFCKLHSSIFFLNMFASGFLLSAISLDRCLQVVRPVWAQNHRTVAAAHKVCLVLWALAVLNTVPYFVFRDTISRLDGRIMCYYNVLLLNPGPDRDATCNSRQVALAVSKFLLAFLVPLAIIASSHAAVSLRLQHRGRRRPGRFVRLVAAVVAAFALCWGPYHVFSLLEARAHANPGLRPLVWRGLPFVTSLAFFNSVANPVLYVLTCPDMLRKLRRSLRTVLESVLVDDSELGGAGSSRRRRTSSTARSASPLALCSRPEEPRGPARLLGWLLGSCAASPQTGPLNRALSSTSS
Nature of the assay: DP2/CRTH2 radioligand binding assay using [3H]PGD2. As to conditions: hDP2 (CRTH2) binding assay, membranes of HEK293 cells expressing recombinant human DP2. On the procedure: The ability of a compound to bind to the human DP2 receptor is assessed via a radioligand binding assay using [^3H]PGD2. HEK293 cells stably expressing recombinant human DP2 are resuspended in 10 mM Hepes, 7.4 containing 1 mM DTT, lysed and centrifuged at 75,000×g to pellet the membranes. The membranes are resuspended in 10 mM Hepes, 7.4 containing 1 mM DTT and 10% glycerol to approximately 5 mg protein/ml. Membranes (2-10 μg protein/well) are incubated in 96-well plates with 1 nM [^3H]PGD2 and test compound in Assay Buffer (50 mM Hepes, 10 mM MnCl2, 1 mM EDTA, plus or minus 0.2% human serum albumin, pH 7.4) for 60 minutes at room temperature. The reactions are terminated by rapid filtration through Whatman GF/C glass fibre filter plates. The filter plates were pre-soaked in 0.33% polyethylenimine for 30 minutes at room temperature then washed in Wash Buffer (50 mM Hepes, 0.5 M NaCl pH 7.4) prior to harvesting. After harvesting, the filter plates are washed 3 times with 1 ml cold Wash Buffer then dried. Scintillant is then added to the plates and the radioactivity retained on the filters is determined on a Packard TopCount (Perkin Elmer). Specific binding is determined as total radioactive binding minus non-specific binding in the presence of 10 μM PGD2. IC50s were determined using GraphPad prism analysis of drug titration curves.
`O=C(O)Cc1cccc(Oc2ccc(Br)cc2CN(C(=O)OCc2ccccc2)C2CCc3ccccc32)c1` (stereo in doubt) [Compound 1-6, (3-{2-[((R)-Benzyloxycarbonyl-indan-1-yl-amino)-methyl]-4-bromo-phenoxy}-phenyl)-acetic acid]: the IC50 was under 300 nM.

As to `CC(=O)N(Cc1cc(C(F)(F)F)ccc1Oc1cccc(CC(=O)O)c1)C1CCc2ccccc21` (stereo in doubt) [Compound 1-13, (3-{2-[((R)-Acetyl-indan-1-yl-amino)-methyl]-4-trifluoromethyl-phenoxy}-phenyl)-acetic acid], the IC50 is under 300 nM. To `CC(=O)N(Cc1cc(C(F)(F)F)ccc1Oc1cccc(CC(=O)O)c1)C1CCc2ccccc21` (stereo in doubt) [Compound 1-14, (3-{2-[((S)-Acetyl-indan-1-yl-amino)-methyl]-4-trifluoromethyl-phenoxy}-phenyl)-acetic acid] belongs under 300 nM. Under `COC(=O)N(Cc1cc(C(F)(F)F)ccc1Oc1cccc(CC(=O)O)c1)C1CCc2ccccc21` (stereo in doubt) [Compound 1-19, (3-{2-[((R)-Indan-1-yl-methoxycarbonyl-amino)-methyl]-4-trifluoromethyl-phenoxy}-phenyl)-acetic acid] stands under 300 nM. Turning to `CC(=O)N(CCc1ccccc1)Cc1cc(Br)ccc1Oc1cccc(CC(=O)O)c1` [Compound 1-1, (3-{2-[(Acetyl-phenethyl-amino)-methyl]-4-bromo-phenoxy}-phenyl)-acetic acid], the IC50 was under 300 nM. Under `CC(=O)N(Cc1cc(Br)ccc1Oc1cccc(CC(=O)O)c1)C(C)(C)Cc1ccc(F)cc1` [Compound 1-2, {3-[2-({Acetyl-[2-(4-fluoro-phenyl)-1,1-dimethyl-ethyl]-amino}-methyl)-4-bromo-phenoxy]-phenyl}-acetic acid] stands under 300 nM; under `COC(=O)N(Cc1ccccc1)Cc1cc(Br)ccc1Oc1cccc(CC(=O)O)c1` [Compound 1-3, (3-{2-[(Benzyl-methoxycarbonyl-amino)-methyl]-4-bromo-phenoxy}-phenyl)-acetic acid], under 300 nM; under `COC(=O)N(CCc1ccccc1)Cc1cc(Br)ccc1Oc1cccc(CC(=O)O)c1` [Compound 1-4, (3-{4-Bromo-2-[(methoxycarbonyl-phenethyl-amino)-methyl]-phenoxy}-phenyl)-acetic acid], under 300 nM. To `COC(=O)N(Cc1cc(Br)ccc1Oc1cccc(CC(=O)O)c1)[C@@H](C)Cc1ccccc1` [Compound 1-5, [3-(4-Bromo-2-{[methoxycarbonyl-((S)-1-methyl-2-phenyl-ethyl)-amino]-methyl}-phenoxy)-phenyl]-acetic acid] belongs under 300 nM; to `COc1ccc(CC(=O)O)cc1Oc1ccc(Br)cc1CN[C@H]1c2ccccc2C[C@H]1O` [Compound 1-7, (3-{4-Bromo-2-[((1S,2R)-2-hydroxy-indan-1-ylamino)-methyl]-phenoxy}-4-methoxy-phenyl)-acetic acid], over 1000 nM; to `CCN(Cc1cc(Br)ccc1Oc1cc(CC(=O)O)ccc1OC)C(C)=O` [Compound 1-8, (3-{2-[(Acetyl-ethyl-amino)-methyl]-4-bromo-phenoxy}-4-methoxy-phenyl)-acetic acid], under 300 nM. As to `COc1ccc(CC(=O)O)cc1Oc1ccc(Br)cc1CN(Cc1ccccc1)C(C)=O` [Compound 1-9, (3-{2-[(Acetyl-benzyl-amino)-methyl]-4-bromo-phenoxy}-4-methoxy-phenyl)-acetic acid], the IC50 is under 300 nM. In the case of `CCN(Cc1cc(Br)ccc1Oc1cc(CC(=O)O)ccc1OC)C(=O)OC` [Compound 1-10, (3-{4-Bromo-2-[(ethyl-methoxycarbonyl-amino)-methyl]-phenoxy}-4-methoxy-phenyl)-acetic acid], the concentration for half-maximal inhibition (IC50) was under 300 nM. Turning to `COC(=O)N(Cc1ccccc1)Cc1cc(Br)ccc1Oc1cc(CC(=O)O)ccc1OC` [Compound 1-11, (3-{2-[(Benzyl-methoxycarbonyl-amino)-methyl]-4-bromo-phenoxy}-4-methoxy-phenyl)-acetic acid], the IC50 is under 300 nM. For `C[C@H](NCc1cc(C(F)(F)F)ccc1Oc1cccc(CC(=O)O)c1)[C@H](O)c1ccccc1` [Compound 1-12, (3-{2-[((1S,2R)-2-Hydroxy-1-methyl-2-phenyl-ethylamino)-methyl]-4-trifluoromethyl-phenoxy}-phenyl)-acetic acid], the IC50 was over 1000 nM. Under `O=C(O)Cc1cccc(Oc2ccc(C(F)(F)F)cc2CNC(=O)c2ccc(Cl)cc2)c1` [Compound 1-15, (3-{2-[(4-Chloro-benzoylamino)-methyl]-4-trifluoromethyl-phenoxy}-phenyl)-acetic acid] stands over 300 nM.

For `CN(Cc1cc(C(F)(F)F)ccc1Oc1cccc(CC(=O)O)c1)C(=O)Cc1ccccc1` [Compound 1-16, (3-{2-[(Methyl-phenylacetyl-amino)-methyl]-4-trifluoromethyl-phenoxy}-phenyl)-acetic acid], the IC50 is under 300 nM. `CCN(Cc1cc(C(F)(F)F)ccc1Oc1cccc(CC(=O)O)c1)C(=O)c1ccccc1` [Compound 1-17, (3-{2-[(Benzoyl-ethyl-amino)-methyl]-4-trifluoromethyl-phenoxy}-phenyl)-acetic acid]: the IC50 is under 300 nM. Under `CCN(Cc1cc(C(F)(F)F)ccc1Oc1cccc(CC(=O)O)c1)C(=O)Cc1ccccc1` [Compound 1-18, (3-{2-[(Ethyl-phenylacetyl-amino)-methyl]-4-trifluoromethyl-phenoxy}-phenyl)-acetic acid] stands over 300 nM; under `COC(=O)N(Cc1cc(C(F)(F)F)ccc1Oc1cccc(CC(=O)O)c1)C1Cc2ccccc2C1` [Compound 1-20, (3-{2-[(Indan-2-yl-methoxycarbonyl-amino)-methyl]-4-trifluoromethyl-phenoxy}-phenyl)-acetic acid], under 300 nM. Regarding `CN(Cc1cc(C(F)(F)F)ccc1Oc1cccc(CC(=O)O)c1)C(=O)OCc1ccccc1` [Compound 1-21, (3-{2-[(Benzyloxycarbonyl-methyl-amino)-methyl]-4-trifluoromethyl-phenoxy}-phenyl)-acetic acid], the IC50 was under 300 nM.

As to `O=C(O)Cc1cccc(Oc2ccc(C(F)(F)F)cc2CNS(=O)(=O)c2ccc(Cl)cc2)c1` [Compound 1-22, (3-{2-[(4-Chloro-benzenesulfonylamino)-methyl]-4-trifluoromethyl-phenoxy}-phenyl)-acetic acid], the IC50 was under 300 nM. Take `CN(Cc1cc(C(F)(F)F)ccc1Oc1cccc(CC(=O)O)c1)S(=O)(=O)c1ccc(Cl)cc1` [Compound 1-23, [3-(2-{[(4-Chloro-benzenesulfonyl)-methyl-amino]-methyl}-4-trifluoromethyl-phenoxy)-phenyl]-acetic acid]: the IC50 was under 300 nM. As for `CN(Cc1cc(C(F)(F)F)ccc1Oc1cccc(CC(=O)O)c1)S(=O)(=O)c1ccccc1C(F)(F)F` [Compound 1-24, [3-(2-{[Methyl-(2-trifluoromethyl-benzenesulfonyl)-amino]-methyl}-4-trifluoromethyl-phenoxy)-phenyl]-acetic acid], the IC50 is over 300 nM. `COc1ccc(S(=O)(=O)N(C)Cc2cc(C(F)(F)F)ccc2Oc2cccc(CC(=O)O)c2)cc1` [Compound 1-25, [3-(2-{[(4-Methoxy-benzenesulfonyl)-methyl-amino]-methyl}-4-trifluoromethyl-phenoxy)-phenyl]-acetic acid]: the IC50 was over 300 nM. Under `CCN(Cc1cc(C(F)(F)F)ccc1Oc1cccc(CC(=O)O)c1)S(=O)(=O)c1ccc(OC)cc1` [Compound 1-26, [3-(2-{[Ethyl-(4-methoxy-benzenesulfonyl)-amino]-methyl}-4-trifluoromethyl-phenoxy)-phenyl]-acetic acid] stands under 300 nM; under `CCN(Cc1cc(C(F)(F)F)ccc1Oc1cccc(CC(=O)O)c1)S(=O)(=O)c1ccc(C)cc1` [Compound 1-27, [3-(2-{[Ethyl-(toluene-4-sulfonyl)-amino]-methyl}-4-trifluoromethyl-phenoxy)-phenyl]-acetic acid], under 300 nM; under `CCN(Cc1cc(C(F)(F)F)ccc1Oc1cccc(CC(=O)O)c1)S(=O)(=O)c1ccc(S(C)(=O)=O)cc1` [Compound 1-28, [3-(2-{[Ethyl-(4-methanesulfonyl-benzenesulfonyl)-amino]-methyl}-4-trifluoromethyl-phenoxy)-phenyl]-acetic acid], over 300 nM. As to `CCN(Cc1cc(C(F)(F)F)ccc1Oc1cccc(CC(=O)O)c1)S(=O)(=O)c1ccc(C(C)=O)cc1` [Compound 1-29, [3-(2-{[(4-Acetyl-benzenesulfonyl)-ethyl-amino]-methyl}-4-trifluoromethyl-phenoxy)-phenyl]-acetic acid], the IC50 was under 300 nM.
